Data on one molecule can be found in patent US11571416B2, “Amodiaquine analogs and methods of uses thereof” (priority 2017, dated 2023).

The subject of data set [1] is Huh7 cells. The data set is described as follows: Cytotoxicity, CellTiter-Glo Luminescent Cell Viability Assay. The following applies: Table 2, 24 h incubation. (ATP-based viability assays read luminescence as a measure of living cells.)
The test system of data set [2] is Ebolavirus. The conditions noted are these: human, in vivo; cited from earlier work.
Data set [3] concerns Ebolavirus. The conditions noted are these: cited from earlier work.
The test system of data set [4] is EBOV-GFP (recombinant Ebolavirus encoding a GFP reporter gene). Put plainly: microbe, parasite or virus in culture. It counts as cell-based. The following applies: read-out: IC50.

Usually CC50 stands for the concentration that lowers cell viability or growth by half. In general, IC50 refers to the concentration at which inhibition is half-maximal. As to `CCN(CC)Cc1cc(Nc2ccnc3cc(Cl)ccc23)ccc1O` [Amodiaquine], the cytotoxic concentration (CC50) in data set [1] came out at 79 µM. Besides, the mortality rate in data set [2] is 50%. Besides, the “anti-Ebolavirus activity (previous reports)” value in data set [3] is given as “potent anti-Ebolavirus activity”. The IC50 in data set [4] is 2130 nM.
